In PubChem BioAssay (NCI):
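The compound was tested at five concentrations on cells cultured in 96-well plates, with a 48-hour exposure period. At the TGI there is no net growth.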

Key:
Test in all cases: NCI tumour cell line growth inhibition, 48 h
[1] = tested on: 786-0 renal
[2] = tested on: A498 renal
[3] = tested on: A549 NSCLC
[4] = tested on: ACHN renal
[5] = tested on: CAKI-1 renal
[6] = tested on: CCRF-CEM leukemia
[7] = tested on: COLO 205 colon
[8] = tested on: DLD-1 colon
[9] = tested on: DMS 114 small cell lung
[10] = tested on: DMS 273 small cell lung
[11] = tested on: EKVX NSCLC
[12] = tested on: HCC-2998 colon
[13] = tested on: HCT-116 colon
[14] = tested on: HCT-15 colon
[15] = tested on: HL-60(TB) leukemia
[16] = tested on: HOP-18 NSCLC
[17] = tested on: HOP-62 NSCLC
[18] = tested on: HOP-92 NSCLC
[19] = tested on: HT29 colon
[20] = tested on: IGROV1 ovarian
[21] = tested on: K-562 leukemia
[22] = tested on: KM12 colon
[23] = tested on: KM20L2 colon
[24] = tested on: LOX IMVI melanoma
[25] = tested on: M14 melanoma
[26] = tested on: M19-MEL melanoma
[27] = tested on: MALME-3M melanoma
[28] = tested on: MOLT-4 leukemia
[29] = tested on: NCI-H226 lung
[30] = tested on: NCI-H23 lung
[31] = tested on: NCI-H460 lung
[32] = tested on: NCI-H522 lung
[33] = tested on: OVCAR-3 ovarian
[34] = tested on: OVCAR-4 ovarian
[35] = tested on: OVCAR-5 ovarian
[36] = tested on: OVCAR-8 ovarian
[37] = tested on: RPMI-8226 leukemia
[38] = tested on: RXF 393 renal
[39] = tested on: SF-268 CNS
[40] = tested on: SF-295 CNS
[41] = tested on: SF-539 CNS
[42] = tested on: SK-MEL-2 melanoma
[43] = tested on: SK-MEL-28 melanoma
[44] = tested on: SK-MEL-5 melanoma
[45] = tested on: SK-OV-3 ovarian
[46] = tested on: SN12C renal
[47] = tested on: SNB-19 CNS
[48] = tested on: SNB-75 CNS
[49] = tested on: SNB-78 CNS
[50] = tested on: SR leukemia
[51] = tested on: SW-620 colon
[52] = tested on: TK-10 renal
[53] = tested on: U251 CNS
[54] = tested on: UACC-257 melanoma
[55] = tested on: UACC-62 melanoma
[56] = tested on: UO-31 renal
[57] = tested on: XF 498 CNS
[58] = tested on: LXFL 529 NSCLC

## CN=S(=O)(c1ccccc1)c1ccccc1
[1]
  TGI: > 100 µM
[2]
  TGI: > 100 µM
[3]
  TGI: > 100 µM
[4]
  TGI: > 100 µM
[5]
  TGI: > 100 µM
[6]
  TGI: > 100 µM
[7]
  TGI: > 100 µM
[8]
  TGI: > 100 µM
[9]
  TGI: > 100 µM
[10]
  TGI: > 100 µM
[11]
  TGI: > 100 µM
[12]
  TGI: > 100 µM
[13]
  TGI: > 100 µM
[14]
  TGI: > 100 µM
[15]
  TGI: > 100 µM
[16]
  TGI: > 100 µM
[17]
  TGI: > 100 µM
[18]
  TGI: > 100 µM
[19]
  TGI: > 100 µM
[20]
  TGI: > 100 µM
[21]
  TGI: > 100 µM
[22]
  TGI: > 100 µM
[23]
  TGI: > 100 µM
[24]
  TGI: > 100 µM
[25]
  TGI: > 100 µM
[26]
  TGI: > 100 µM
[27]
  TGI: > 100 µM
[28]
  TGI: > 100 µM
[29]
  TGI: > 100 µM
[30]
  TGI: > 100 µM
[31]
  TGI: > 100 µM
[32]
  TGI: > 100 µM
[33]
  TGI: > 100 µM
[34]
  TGI: > 100 µM
[35]
  TGI: > 100 µM
[36]
  TGI: > 100 µM
[37]
  TGI: > 100 µM
[38]
  TGI: > 100 µM
[39]
  TGI: > 100 µM
[40]
  TGI: > 100 µM
[41]
  TGI: > 100 µM
[42]
  TGI: > 100 µM
[43]
  TGI: > 100 µM
[44]
  TGI: > 100 µM
[45]
  TGI: > 100 µM
[46]
  TGI: > 100 µM
[47]
  TGI: > 100 µM
[48]
  TGI: > 100 µM
[49]
  TGI: > 100 µM
[50]
  TGI: > 100 µM
[51]
  TGI: > 100 µM
[52]
  TGI: > 100 µM
[53]
  TGI: > 100 µM
[54]
  TGI: > 100 µM
[55]
  TGI: > 100 µM
[56]
  TGI: > 100 µM
[57]
  TGI: > 100 µM

## CC/C=C\C/C=C\C/C=C\CCCCCCCC(=O)OCC
[1]
  TGI: > 100 µM
[2]
  TGI: > 100 µM
[3]
  TGI: > 100 µM
[4]
  TGI: > 100 µM
[5]
  TGI: > 100 µM
[6]
  TGI: > 100 µM
[7]
  TGI: > 100 µM
[8]
  TGI: > 100 µM
[9]
  TGI: > 100 µM
[11]
  TGI: > 100 µM
[12]
  TGI: > 100 µM
[13]
  TGI: > 100 µM
[15]
  TGI: > 100 µM
[16]
  TGI: > 100 µM
[17]
  TGI: > 100 µM
[18]
  TGI: > 100 µM
[19]
  TGI: > 100 µM
[20]
  TGI: > 100 µM
[21]
  TGI: > 100 µM
[22]
  TGI: > 100 µM
[23]
  TGI: > 100 µM
[24]
  TGI: > 100 µM
[58]
  TGI: > 100 µM
[25]
  TGI: > 100 µM
[26]
  TGI: > 100 µM
[27]
  TGI: > 100 µM
[28]
  TGI: > 100 µM
[29]
  TGI: > 100 µM
[30]
  TGI: > 100 µM
[33]
  TGI: > 100 µM
[34]
  TGI: > 100 µM
[35]
  TGI: > 100 µM
[36]
  TGI: > 100 µM
[37]
  TGI: > 100 µM
[39]
  TGI: > 100 µM
[40]
  TGI: > 100 µM
[41]
  TGI: > 100 µM
[42]
  TGI: > 100 µM
[43]
  TGI: > 100 µM
[44]
  TGI: > 100 µM
[45]
  TGI: > 100 µM
[46]
  TGI: > 100 µM
[48]
  TGI: > 100 µM
[50]
  TGI: > 100 µM
[51]
  TGI: > 100 µM
[52]
  TGI: > 100 µM
[53]
  TGI: > 100 µM
[54]
  TGI: > 100 µM
[55]
  TGI: > 100 µM
[56]
  TGI: > 100 µM
[57]
  TGI: > 100 µM

## COc1ccc2nc3cc(Cl)ccc3c(NCCCN(CCCl)CCCl)c2c1
[3]
  TGI: 0.664 µM
[5]
  TGI: 0.123 µM
[8]
  TGI: > 100 µM
[10]
  TGI: 1.03 µM
[11]
  TGI: 0.539 µM
[14]
  TGI: 1.13 µM
[15]
  TGI: 0.0135 µM
[16]
  TGI: 9.4 µM
[19]
  TGI: 0.333 µM
[20]
  TGI: 0.479 µM
[21]
  TGI: 0.154 µM
[22]
  TGI: 0.395 µM
[23]
  TGI: > 100 µM
[26]
  TGI: 0.846 µM
[29]
  TGI: 0.311 µM
[32]
  TGI: 0.163 µM
[33]
  TGI: 0.295 µM
[34]
  TGI: 0.232 µM
[35]
  TGI: 0.31 µM
[39]
  TGI: 0.3 µM
[40]
  TGI: 0.505 µM
[42]
  TGI: 0.437 µM
[45]
  TGI: 1.12 µM
[48]
  TGI: 0.407 µM
[54]
  TGI: > 100 µM
[56]
  TGI: 1.02 µM

## CCOC(=O)C(=O)Nc1c(C)cccc1C
[1]
  TGI: > 100 µM
[3]
  TGI: > 100 µM
[4]
  TGI: > 100 µM
[5]
  TGI: > 100 µM
[7]
  TGI: > 100 µM
[8]
  TGI: > 100 µM
[9]
  TGI: > 100 µM
[10]
  TGI: > 100 µM
[11]
  TGI: > 100 µM
[12]
  TGI: > 100 µM
[13]
  TGI: > 100 µM
[14]
  TGI: > 100 µM
[16]
  TGI: > 100 µM
[17]
  TGI: > 100 µM
[18]
  TGI: > 100 µM
[19]
  TGI: > 100 µM
[20]
  TGI: > 100 µM
[22]
  TGI: > 100 µM
[23]
  TGI: > 100 µM
[24]
  TGI: > 100 µM
[58]
  TGI: > 100 µM
[25]
  TGI: > 100 µM
[26]
  TGI: > 100 µM
[27]
  TGI: > 100 µM
[29]
  TGI: > 100 µM
[30]
  TGI: > 100 µM
[31]
  TGI: > 100 µM
[33]
  TGI: > 100 µM
[34]
  TGI: > 100 µM
[35]
  TGI: > 100 µM
[36]
  TGI: > 100 µM
[37]
  TGI: > 100 µM
[38]
  TGI: > 100 µM
[39]
  TGI: > 100 µM
[40]
  TGI: > 100 µM
[41]
  TGI: > 100 µM
[42]
  TGI: > 100 µM
[43]
  TGI: > 100 µM
[45]
  TGI: > 100 µM
[46]
  TGI: > 100 µM
[47]
  TGI: > 100 µM
[48]
  TGI: > 100 µM
[49]
  TGI: > 100 µM
[51]
  TGI: > 100 µM
[52]
  TGI: > 100 µM
[53]
  TGI: > 100 µM
[54]
  TGI: > 100 µM
[55]
  TGI: > 100 µM
[56]
  TGI: > 100 µM
[57]
  TGI: > 100 µM
